The source of these data is ChEMBL document CHEMBL2062380, “Discovery of a novel pyrrole derivative 1-[5-(2-fluorophenyl)-1-(pyridin-3-ylsulfonyl)-1H-pyrrol-3-yl]-N-methylmethanamine fumarate (TAK-438) as a potassium-competitive acid blocker (P-CAB)” (J Med Chem, 2012).

Series [1] concerns Canis familiaris. Briefly: Inhibition histamine-induced gastric acid secretion in Heidenhain-pouch dog at 1 mg/kg, po administered 1 tp 48 hrs prior histamine challenge measured for 3 consecutive 30 mins time period after compound dosing. It counts as functional, organism-based. The arrangement: dose 1 mg/kg. The settings on record: Canis lupus familiaris, Stomach.
The subject of series [2] is Rattus norvegicus. Briefly: Inhibition of histamine-induced gastric acid secretion in pylorus-ligated Sprague-Dawley rat at 8 mg/kg, po measured after 3 hrs post histamine challenge. The arrangement: dose 8 mg/kg. The settings on record: Stomach. It counts as functional, organism-based.
The subject of series [3] is Rattus norvegicus. Briefly: Inhibition of histamine-induced gastric acid secretion in pylorus-ligated Sprague Dawley rat at 1 mg/kg, iv administered 3 mins prior to histamine challenge measured after 3 hrs. It counts as functional. The settings on record: Stomach.
A short description of series [4]: Inhibition of swine H+/K+-ATPase after 30 mins by colorimetry. Also on record: species or system Sus scrofa.
A short description of series [5]: Lipophilicity, log D of compound at pH 7.4. In kind it is physicochemical. The settings on record: buffer.
Series [6] concerns Canis familiaris. Briefly: Inhibition histamine-induced gastric acid secretion in Heidenhain-pouch dog at 1 mg/kg, po administered 1 day post histamine challenge measured for 3 consecutive 30 mins time period after compound dosing. It counts as functional, organism-based. Also on record: dose 1 mg/kg. The settings on record: Canis lupus familiaris, Stomach.
For series [7], the system named is Rattus norvegicus. Briefly: Inhibition of histamine-induced gastric acid secretion in po dosed pylorus-ligated Sprague-Dawley rat measured after 3 hrs post histamine challenge. In kind it is functional, organism-based. The settings on record: Stomach.
Series [8] deals with Rattus norvegicus. Nature of the series: Complete inhibition of histamine-induced gastric acid secretion in pylorus-ligated Sprague Dawley rat at 4 mg/kg, po measured after 3 hrs post histamine challenge. In kind it is functional, organism-based. The arrangement: dose 4 mg/kg. The settings on record: Stomach.
The test system of series [9] is Canis familiaris. Nature of the series: Inhibition histamine-induced gastric acid secretion in Heidenhain-pouch dog at 1 mg/kg, po measured after 2 days. It counts as functional, organism-based. The settings on record: Canis lupus familiaris, Stomach. The arrangement: dose 1 mg/kg.

SMILES strings stand for the structures. Counter-ions that a name gives are not always drawn. Calls of active or inactive are those of the source. The rule behind the calls is not given here.

`Cc1c(OCC(F)(F)F)ccnc1C[S+]([O-])c1nc2ccccc2[nH]1` (stereo not drawn): the inhibition result in the series on Canis familiaris [1] is “Active”. Besides, in the series on Rattus norvegicus [2], the inhibition result is “inactive”.

Regarding `CNCc1cc(-c2ccccc2C)n(S(=O)(=O)c2cccnc2)c1`, in the series on Rattus norvegicus [3], the inhibition in vivo at 1 mg/kg came to 95%. In series [4], this molecule yielded a half-maximal inhibitory concentration (IC50) of 46 nM. This molecule also gave a logD in [5] of 1.

Molecule `CNCc1cc(-c2cccc(F)c2)n(S(=O)(=O)c2cccnc2)c1` gave an inhibition in vivo at 1 mg/kg with Rattus norvegicus [3] of 92%. The molecule further returned an IC50 in series [4] of 20 nM. The pH-dependent lipophilicity (logD) in series [5] stood at 1.

In turn, `CNCc1cc(-c2ccccc2Cl)n(S(=O)(=O)c2cccnc2)c1` had an inhibition in vivo at 1 mg/kg with Rattus norvegicus [3] of 97%. In series [4], this molecule showed an IC50 of 17 nM. The molecule also displayed a log distribution coefficient (logD) in series [5] of 0.7.

In the case of `CNCc1cc(-c2ccccc2CO)n(S(=O)(=O)c2cccnc2)c1`, the half-maximal inhibitory concentration (IC50) in series [4] was found to be 2200 nM. The logD in series [5] was -0.3.

On to `CNCc1cc(-c2ccccc2)n(S(=O)(=O)c2ccc(OC)nc2)c1`, for which, in the series with Rattus norvegicus [3], 1 mg/kg produced 95% inhibition in vivo. In series [4], the 50% inhibitory concentration (IC50) came to 13 nM. The same molecule yielded a pH-dependent lipophilicity (logD) in series [5] of 1.7.

With `CNCc1cc(-c2ccccc2)n(S(=O)(=O)c2cccs2)c1`, in the series with Rattus norvegicus [3], the inhibition in vivo at 1 mg/kg was 69%. For the same molecule, the IC50 in series [4] was 51 nM. In addition, the logD in [5] came out at 1.2.

For `CNCc1cc(-c2ccc(F)cc2)n(S(=O)(=O)c2cccnc2)c1`, the inhibition in vivo at 1 mg/kg in the series on Rattus norvegicus [3] was 85%. Besides, the half-maximal inhibitory concentration (IC50) in series [4] was 46 nM. The same molecule registered a logD in series [5] of 1.

In the series with Rattus norvegicus [3], `CNCc1cc(-c2ccccc2)n(S(=O)(=O)c2ccsc2)c1` gave an inhibition in vivo at 1 mg/kg of 55%. This molecule returned an IC50 in series [4] of 16 nM. Also, in [5], the pH-dependent lipophilicity (logD) was 1.1.

In the series with Rattus norvegicus [3], `CNCc1cc(-c2ccccc2)n(S(=O)(=O)c2ccc(C#N)nc2)c1` showed an inhibition in vivo at 1 mg/kg of 17%. Moreover, half-maximal inhibition in series [4] (IC50) was put at 110 nM. This molecule came in with a logD in series [5] of 1.4.

Regarding `CNCc1cc(-c2ccccc2)n(S(=O)(=O)c2ccc(OC)cc2)c1`, the inhibition in vivo at 1 mg/kg with Rattus norvegicus [3] was found to be 95%. The molecule also had an IC50 in [4] of 30 nM. Besides, in series [5], the logD was determined as 1.5.

`CNCc1cc(-c2ccccc2)n(S(=O)(=O)c2cccc(S(C)(=O)=O)c2)c1` had a half-maximal inhibitory concentration (IC50) in series [4] of 78 nM.

For `CNCc1cc(-c2ccccc2)n(S(=O)(=O)c2cccc(OC)c2)c1`, inhibition in series [4] was half-maximal at 11 nM (IC50).

In the series on Rattus norvegicus [3], `CNCc1cc(-c2ccccc2C#N)n(S(=O)(=O)c2cccnc2)c1` gave an inhibition in vivo at 1 mg/kg of 68%. The IC50 in series [4] worked out at 230 nM. In series [5], this molecule registered a logD of -0.2.

The molecule `CNCc1cc(-c2ccccc2F)n(S(=O)(=O)c2cccnc2)c1` [VONOPRAZAN FUMARATE] gave an inhibition in vivo at 1 mg/kg in the series with Rattus norvegicus [3] of 98%. The inhibition result in the series with Canis familiaris [6], with Rattus norvegicus [8] and with Canis familiaris [9] was “Active” throughout. In the series with Rattus norvegicus [7], the inhibition result is “Dose-dependent effect”. Besides, 19 nM corresponded to half-maximal inhibition in series [4] (IC50). Further, the log distribution coefficient (logD) in series [5] came out at 0.4.

In the series with Rattus norvegicus [3], `CNCc1cc(-c2ccccc2)n(S(=O)(=O)c2ccc(C)nc2)c1` returned an inhibition in vivo at 1 mg/kg of 83%. In [4], this molecule showed an IC50 of 34 nM. For the same molecule, the logD in [5] came out at 1.

Consider `CNCc1cc(-c2ccccc2)n(S(=O)(=O)c2ccccn2)c1`, for which 170 nM corresponded to half-maximal inhibition in [4] (IC50).

Turning to `CNCc1cc(-c2ccccc2C(F)(F)F)n(S(=O)(=O)c2cccnc2)c1`, the inhibition in vivo at 1 mg/kg in the series with Rattus norvegicus [3] was 92%. Also, in [4], the IC50 turned out to be 75 nM. Further, the pH-dependent lipophilicity (logD) in [5] was determined as 0.8.

For the molecule `CNCc1cc(-c2ccccc2)n(S(=O)(=O)c2cccnc2)c1`, the inhibition in vivo at 1 mg/kg in the series with Rattus norvegicus [3] was 85%. The 50% inhibitory concentration (IC50) in series [4] is 16 nM. In series [5], this molecule returned a pH-dependent lipophilicity (logD) of 0.7.

For orientation: inhibition in vivo means how much of the control response was suppressed. Low readings indicate a weak effect, high ones a strong effect. The IC50 is the midpoint of a concentration-inhibition curve. Low values mean higher potency, high ones lower potency. For orientation: logD means the decadic logarithm of the distribution of all forms, ionised or not, between an organic phase and buffer at a given pH. Low readings indicate lower lipophilicity, high ones higher lipophilicity.
